Drawing on ChEMBL document CHEMBL1130484, “Tricyclic -lactams: Total synthesis and antibacterial activity of 5-methoxyethyl and 5-hydroxyethyl trinems” (1997), this text covers MIC for five compounds.

What all share (format): functional
Test [1] has as its system Haemophilus influenzae. Put plainly: In vitro antibacterial activity of compound against Haemophilus influenzae ATCC 49247 was determined.
Test [2] deals with Klebsiella pneumoniae. Put plainly: In vitro antibacterial activity of compound against Klebsiella pneumoniae 3226 was determined.
Test [3] has as its system Staphylococcus aureus. Put plainly: In vitro antibacterial activity of compound against Staphylococcus aureus 663 PEN-S.
Test [4] deals with Escherichia coli. Put plainly: In vitro antibacterial activity of compound against Escherichia coli 851E was determined.
Test [5] relates to Proteus mirabilis. Put plainly: In vitro antibacterial activity of compound against Proteus mirabilis 3558 was determined.
The test system of test [6] is Bacteroides fragilis. Put plainly: In vitro antibacterial activity of compound against Bacteroides fragilis 2017E was determined.
The test system of test [7] is Enterobacter cloacae. The test is described as follows: In vitro antibacterial activity of compound against Enterobacter cloacae 3647 was determined.
For test [8], the system named is Escherichia coli. The test is described as follows: In vitro antibacterial activity of compound against Escherichia coli 1852E PM was determined.
Test [9] deals with Pseudomonas aeruginosa. The test is described as follows: In vitro antibacterial activity of compound against Pseudomonas aeruginosa 2033E PER.
Test [10] relates to Escherichia coli. Put plainly: In vitro antibacterial activity of compound against Escherichia coli 1919E PM/TEM-1 was determined.
Test [11] has as its system Clostridium perfringens. The test is described as follows: In vitro antibacterial activity of compound against Clostridium perfringens 615E was determined.
For test [12], the system named is Pseudomonas aeruginosa. The test is described as follows: In vitro antibacterial activity of compound against Pseudomonas aeruginosa 2032E WT was determined.
The subject of test [13] is Streptococcus pneumoniae. Put plainly: In vitro antibacterial activity of compound against Streptococcus pneumoniae 3512 was determined.
Test [14] has as its system Escherichia coli. The test is described as follows: In vitro antibacterial activity of compound against Escherichia coli 1850E WT was determined.
The subject of test [15] is Staphylococcus aureus. Put plainly: In vitro antibacterial activity of compound against Staphylococcus aureus 853E PEN-R.
Test [16] relates to Staphylococcus aureus. The test is described as follows: In vitro antibacterial activity of compound against Staphylococcus aureus 11311 MET-R.
The test system of test [17] is Pseudomonas aeruginosa. The test is described as follows: In vitro antibacterial activity of compound against Pseudomonas aeruginosa 1911E was determined.
Test [18] deals with Enterococcus faecalis. The test is described as follows: In vitro antibacterial activity of compound against Enterococcus faecalis 850.

Each structure is given as a SMILES string. In brackets after ≈: the same amount, converted by molar mass. A value given as a limit tells only on which side of the number the result lay.

On to `COCC[C@H]1CC[C@H]2C(=C(C(=O)O)N3C(=O)[C@H]([C@@H](C)O)[C@@H]23)C1`, for which the MIC came out at 4 µg/mL (≈ 12.9 µM) in test [1]; 4 µg/mL (≈ 12.9 µM) in test [2]; 0.5 µg/mL (≈ 1.62 µM) in test [3]; 8 µg/mL (≈ 25.9 µM) in test [4]; 8 µg/mL (≈ 25.9 µM) in test [5]; 16 µg/mL (≈ 51.7 µM) in [6]. Moreover, the MIC was 32 µg/mL (≈ 103 µM) in test [7]; 1 µg/mL (≈ 3.23 µM) in [8]; 16 µg/mL (≈ 51.7 µM) in test [9]; 2 µg/mL (≈ 6.46 µM) in [10]; 2 µg/mL (≈ 6.46 µM) in test [11]; greater than 32 µg/mL in [12]. Also, the MIC was 0.12 µg/mL (≈ 0.388 µM) in test [13]; 8 µg/mL (≈ 25.9 µM) in [14]; 1 µg/mL (≈ 3.23 µM) in [15]; greater than 32 µg/mL in test [16]; greater than 32 µg/mL in test [17]; 8 µg/mL (≈ 25.9 µM) in test [18].

`CO[C@H]1CC[C@H]2C(=C(C(=O)O)N3C(=O)[C@H]([C@@H](C)O)[C@@H]23)C1`: the MIC turned out to be 4 µg/mL (≈ 14.2 µM) in test [1]; 4 µg/mL (≈ 14.2 µM) in test [2]; 0.5 µg/mL (≈ 1.78 µM) in [3]; 8 µg/mL (≈ 28.4 µM) in test [4]; 8 µg/mL (≈ 28.4 µM) in test [5]; 16 µg/mL (≈ 56.9 µM) in [6]. Besides, the MIC in test [7] was 32 µg/mL (≈ 114 µM); in [8], 1 µg/mL (≈ 3.55 µM); in test [9], 16 µg/mL (≈ 56.9 µM); in [10] it was 2 µg/mL (≈ 7.11 µM); in test [11] it was 2 µg/mL (≈ 7.11 µM); in [12], greater than 32 µg/mL. In addition, the MIC is 0.12 µg/mL (≈ 0.427 µM) in test [13]; 8 µg/mL (≈ 28.4 µM) in test [14]; 1 µg/mL (≈ 3.55 µM) in test [15]; greater than 32 µg/mL in test [16]; greater than 32 µg/mL in test [17]; 8 µg/mL (≈ 28.4 µM) in [18].

In the case of `C[C@@H](O)[C@H]1C(=O)N2C(C(=O)O)=C3C[C@@H](CCO)CC[C@@H]3[C@H]12`, the MIC in test [1] is 1 µg/mL (≈ 3.39 µM); in [2], 2 µg/mL (≈ 6.77 µM); in test [3], 0.25 µg/mL (≈ 0.846 µM); in test [4], 1 µg/mL (≈ 3.39 µM); in test [5] it was 8 µg/mL (≈ 27.1 µM); in test [6], 16 µg/mL (≈ 54.2 µM). Further, the MIC in test [7] is 4 µg/mL (≈ 13.5 µM); in test [8], 2 µg/mL (≈ 6.77 µM); in test [9] it was 4 µg/mL (≈ 13.5 µM); in test [10] it was 2 µg/mL (≈ 6.77 µM); in [11], 4 µg/mL (≈ 13.5 µM); in [12], greater than 32 µg/mL. For the same compound, the MIC is 0.25 µg/mL (≈ 0.846 µM) in test [13]; 2 µg/mL (≈ 6.77 µM) in test [14]; 0.5 µg/mL (≈ 1.69 µM) in test [15]; greater than 32 µg/mL in test [16]; greater than 32 µg/mL in [17]; 4 µg/mL (≈ 13.5 µM) in [18].

Regarding `C[C@@H](O)[C@H]1C(=O)N2C(C(=O)O)=C(SCCNC=N)C[C@H]12` [IMIPENEM ANHYDROUS], the MIC in test [1] was found to be 1 µg/mL (≈ 3.34 µM); in test [2], 0.5 µg/mL (≈ 1.67 µM); in [3], 0.06 µg/mL (≈ 0.2 µM); in [4] it was 0.5 µg/mL (≈ 1.67 µM); in [5], 8 µg/mL (≈ 26.7 µM); in test [6], 0.2 µg/mL (≈ 0.668 µM). The MIC amounted to 2 µg/mL (≈ 6.68 µM) in [7]; 0.5 µg/mL (≈ 1.67 µM) in [8]; 0.2 µg/mL (≈ 0.668 µM) in test [9]; 0.5 µg/mL (≈ 1.67 µM) in [10]; 0.2 µg/mL (≈ 0.668 µM) in test [11]; 4 µg/mL (≈ 13.4 µM) in test [12]. Besides, the MIC in [13] is less than 0.01 µg/mL; in test [14] it was 0.5 µg/mL (≈ 1.67 µM); in test [15], 0.06 µg/mL (≈ 0.2 µM); in test [16], greater than 32 µg/mL; in [17], 4 µg/mL (≈ 13.4 µM); in [18] it was 4 µg/mL (≈ 13.4 µM).

As for `CO[C@H]1CCC[C@H]2C1=C(C(=O)[O-])N1C(=O)[C@H]([C@@H](C)O)[C@@H]21.[Na+]` [SANFETRINEM SODIUM], the MIC in test [6] was found to be 0.06 µg/mL; in [10], 0.5 µg/mL; in [11], 0.03 µg/mL; in [13], 0.01 µg/mL; in [14] it was 0.5 µg/mL; in test [15], 0.2 µg/mL. Further, the MIC is greater than 32 µg/mL in [17] and 1 µg/mL in test [18].
